{"source": "patent USRE39148E1", "about": "“Potentiation of the Microbicide 2-(Thiocyanomethylthio)benzothiazole using an n-alkyl heterocyclic compound” (Buckman Laboratories International, Inc., priority 1995, dated 2006)", "key": {"[1]": {"test_system": "Sphaerotilus natans, ATCC 15291", "test": "18 Hour Stokes Broth Test", "format": "cell-based", "settings": "alone", "procedure": "The bactericidal effects of the combined use of TCMTB and N-alkyl heterocyclic compounds against bacteria were measured using an 18 Hour Stokes Broth Test. Combinations of TCMTB and N-dodecyl morpho line (DDM) and of TCMTB and N-dodecyl imidazole (DDI) were tested against the bacteria Sphaerotilus natans, ATCC 15291. In this test, compound A was Busan® 1030 product, a 30% TCMTB formulation, and compound B was either DDM (99%) or DDI (99%). The Busan® […] product is available from Buckman Laboratories, Memphis, Tenn. The Stokes broth substrate used to evaluate effectiveness of microbicidal compositions against Sphaerotilus natans was prepared by adding the following to one liter of water: [table] The broth was adjusted to pH 7.0 with sodium hydroxide. Forty gram portions were then added to 180 mL Pyrex milk dilution bottles fitted with […] rubber stoppers and then sterilized. Each of the following substances was then added to each bottle in the order listed. • 1. Sterile distilled water as required in each individual case to bring the total weight of the contents of each bottle to 50 g after all subsequent additions specified below (including inoculation with the aqueous suspension of test organism) have been made. • 2. Solution of toxicant or control agent to be evaluated in such individual volumes as to give the concentration desired in parts per million by weight. • 3. One mL of a 24-hour old S. natans culture grown in Stokes broth. After the inoculant suspension of the test organism was added to the bottles they were incubated at 28° C. for 18 hours. After this incubation, a 1 mL of sample was withdrawn from each bottle, diluted, plated on Stokes agar, and incubated for 72-96 hr. at 28-30° C. Stokes agar was prepared like the broth with 12.5 g agar added per liter. The number of colonies on each plate was determined and converted to the count per milliliter of substrate. […] A percentage kill of 90 percent or higher represents an extremely useful bactericidal composition. […] Others may be calculated from the data presented."}, "[2]": {"test_system": "Desulfovibrio desulfuricans, ATCC 7757", "test": "28 Day API Test", "format": "cell-based", "set-up": "key: 0=no growth; 4=heavy growth", "settings": "alone", "procedure": "The bactericidal effects of the combined use of TCMTB and N-alkyl heterocyclic compounds against bacteria were measured using an 28 Day API Test. Combinations of TCMTB (compound A) and N-dodecyl morpholine (DDM, compound B) and of TCMTB (compound A) and N-dodecyl imidazole (DDI, compound B) were tested against the bateria Desulfovibrio desulfuricans, ATCC 7757. Busan® 1030 product, a 30% TCMTB formulation, DDM (99%), and DDI (99%) were used in this testing. The Busan® […] product is available from Buckman Laboratories, Memphis Tenn. The medium used was a modified API Broth having the following composition: […] The compounds were dissolved in 1.0 L of deionized water to form the medium. The pH of the medium was adjusted to a final pH of 6.9 with 1 N sodium hydroxide prior to sterilization. The medium was sterilized at 121° C. for 20 minutes and then allowed to cool to room temperature. The medium is then inoculated by adding 10 ml per liter of a 24-hr. broth culture of Desulfovibrio desulfuricans. From stock solutions of the chemicals to be tested, sufficient amounts of the compounds were added to 1 oz. glass bottles so that when a bottle was completely filled, the desired concentration of the chemical was present. The bottles were then completely filled with the inoculated API broth (10 mL innoculum per liter medium) in a manner such as to exclude all air and provide an anaerobic state. The bottles were capped tightly and inverted gently to mix the contents and, at the same time, to make sure no air bubbles were present. Incubation was carried out at 37° C. for 28 days. Growth was indicated by blackening of the culture medium, whereas those bottles having sufficient chemical to inhibit growth would remain clear. Observations of growth were made at the end of 7 days, 14 days, 21 days and 28 days. […] The minimum inhibitory concentration (MIC) was defined as the lowest concentration tested which gave no growth in the bottle (clear liquid). […] Others may be calculated from the data presented."}}, "data": [{"smiles": "CCCCCCCCCCCCN1CCOCC1", "note": "[Dodecyl Morpholine, N-dodecyl morpholine]", "values": [{"measurement": "% Kill", "setting": "[1]; Table 2, 1 ppm", "result": 58.4, "unit": "%"}, {"measurement": "CFU/mL", "setting": "[1]; Table 2, 1 ppm", "result": "1.58 × 10^6 CFU/mL"}, {"measurement": "% Kill", "setting": "[1]; Table 2, 2 ppm", "result": 67.4, "unit": "%"}, {"measurement": "CFU/mL", "setting": "[1]; Table 2, 2 ppm", "result": "1.24 × 10^6 CFU/mL"}, {"measurement": "% Kill", "setting": "[1]; Table 2, 5 ppm", "result": 77.6, "unit": "%"}, {"measurement": "CFU/mL", "setting": "[1]; Table 2, 5 ppm", "result": "8.51 × 10^5 CFU/mL"}, {"measurement": "CFU/mL", "setting": "[1]; Table 2, 10 ppm", "result": "<10^3 CFU/mL"}, {"measurement": "CFU/mL", "setting": "[1]; Table 2, 20 ppm", "result": "<10^3 CFU/mL"}, {"measurement": "growth, Day 7", "setting": "[2]; Table 4, 10 ppm", "result": 4}, {"measurement": "growth, Day 14", "setting": "[2]; Table 4, 10 ppm", "result": 4}, {"measurement": "growth, Day 21", "setting": "[2]; Table 4, 10 ppm", "result": 4}, {"measurement": "growth, Day 28", "setting": "[2]; Table 4, 10 ppm", "result": 4}, {"measurement": "growth, Day 7", "setting": "[2]; Table 4, 20 ppm", "result": 4}, {"measurement": "growth, Day 14", "setting": "[2]; Table 4, 20 ppm", "result": 4}, {"measurement": "growth, Day 21", "setting": "[2]; Table 4, 20 ppm", "result": 4}, {"measurement": "growth, Day 28", "setting": "[2]; Table 4, 20 ppm", "result": 4}, {"measurement": "growth, Day 7", "setting": "[2]; Table 4, 40 ppm", "result": 2}, {"measurement": "growth, Day 14", "setting": "[2]; Table 4, 40 ppm", "result": 3}, {"measurement": "growth, Day 21", "setting": "[2]; Table 4, 40 ppm", "result": 4}, {"measurement": "growth, Day 28", "setting": "[2]; Table 4, 40 ppm", "result": 4}, {"measurement": "growth, Day 7", "setting": "[2]; Table 4, 80 ppm", "result": 0}, {"measurement": "growth, Day 14", "setting": "[2]; Table 4, 80 ppm", "result": 1}, {"measurement": "growth, Day 21", "setting": "[2]; Table 4, 80 ppm", "result": 3}, {"measurement": "growth, Day 28", "setting": "[2]; Table 4, 80 ppm", "result": 4}, {"measurement": "growth, Day 7", "setting": "[2]; Table 4, 160 ppm", "result": 0}, {"measurement": "growth, Day 14", "setting": "[2]; Table 4, 160 ppm", "result": 0}, {"measurement": "growth, Day 21", "setting": "[2]; Table 4, 160 ppm", "result": 2}, {"measurement": "growth, Day 28", "setting": "[2]; Table 4, 160 ppm", "result": 3}, {"measurement": "growth, Day 7", "setting": "[2]; Table 4, 320 ppm", "result": 0}, {"measurement": "growth, Day 14", "setting": "[2]; Table 4, 320 ppm", "result": 0}, {"measurement": "growth, Day 21", "setting": "[2]; Table 4, 320 ppm", "result": 0}, {"measurement": "growth, Day 28", "setting": "[2]; Table 4, 320 ppm", "result": 0}, {"measurement": "growth, Day 7", "setting": "[2]; Table 5, 1 ppm", "result": 4}, {"measurement": "growth, Day 14", "setting": "[2]; Table 5, 1 ppm", "result": 4}, {"measurement": "growth, Day 21", "setting": "[2]; Table 5, 1 ppm", "result": 4}, {"measurement": "growth, Day 28", "setting": "[2]; Table 5, 1 ppm", "result": 4}, {"measurement": "growth, Day 7", "setting": "[2]; Table 5, 2 ppm", "result": 4}, {"measurement": "growth, Day 14", "setting": "[2]; Table 5, 2 ppm", "result": 4}, {"measurement": "growth, Day 21", "setting": "[2]; Table 5, 2 ppm", "result": 4}, {"measurement": "growth, Day 28", "setting": "[2]; Table 5, 2 ppm", "result": 4}, {"measurement": "growth, Day 7", "setting": "[2]; Table 5, 4 ppm", "result": 4}, {"measurement": "growth, Day 14", "setting": "[2]; Table 5, 4 ppm", "result": 4}, {"measurement": "growth, Day 21", "setting": "[2]; Table 5, 4 ppm", "result": 4}, {"measurement": "growth, Day 28", "setting": "[2]; Table 5, 4 ppm", "result": 4}, {"measurement": "growth, Day 7", "setting": "[2]; Table 5, 8 ppm", "result": 2}, {"measurement": "growth, Day 14", "setting": "[2]; Table 5, 8 ppm", "result": 4}, {"measurement": "growth, Day 28", "setting": "[2]; Table 5, 8 ppm", "result": 4}, {"measurement": "growth, Day 7", "setting": "[2]; Table 5, 16 ppm", "result": 0}, {"measurement": "growth, Day 14", "setting": "[2]; Table 5, 16 ppm", "result": 0}, {"measurement": "growth, Day 21", "setting": "[2]; Table 5, 16 ppm", "result": 0}, {"measurement": "growth, Day 28", "setting": "[2]; Table 5, 16 ppm", "result": 0}, {"measurement": "growth, Day 7", "setting": "[2]; Table 5, 32 ppm", "result": 0}, {"measurement": "growth, Day 14", "setting": "[2]; Table 5, 32 ppm", "result": 0}, {"measurement": "growth, Day 28", "setting": "[2]; Table 5, 32 ppm", "result": 0}]}, {"smiles": "CCCCCCCCCCCCn1ccnc1", "note": "[Dodecyl Imidazole, N-dodecyl imidazole]", "values": [{"measurement": "% Kill", "setting": "[1]; Table 3, 1 ppm", "result": 75.1, "unit": "%"}, {"measurement": "CFU/mL", "setting": "[1]; Table 3, 1 ppm", "result": "1.26 × 10^6 CFU/mL"}, {"measurement": "% Kill", "setting": "[1]; Table 3, 2 ppm", "result": 86.5, "unit": "%"}, {"measurement": "CFU/mL", "setting": "[1]; Table 3, 2 ppm", "result": "6.80 × 10^5 CFU/mL"}, {"measurement": "CFU/mL", "setting": "[1]; Table 3, 5 ppm", "result": "<10^3 CFU/mL"}, {"measurement": "CFU/mL", "setting": "[1]; Table 3, 10 ppm", "result": "<10^3 CFU/mL"}, {"measurement": "CFU/mL", "setting": "[1]; Table 3, 20 ppm", "result": "<10^3 CFU/mL"}, {"measurement": "CFU/mL", "setting": "[1]; Table 3, 50 ppm", "result": "<10^3 CFU/mL"}, {"measurement": "CFU/mL", "setting": "[1]; Table 3, 100 ppm", "result": "<10^3 CFU/mL"}]}]}
